Measurements reported in patent US20050100888A1, “Methods based on hormone dependency of primary cancer cells” (Imperial College Innovations Limited, priority 2002, published 2005).

Legend:
estrogen receptor (ER) [1] = assay: adeno-reporter assay in purified primary breast cancer cells (tumour, lymph node); format: cell-based, human; details: for Reporter response: E2 10 nM, OHT 100 nM, ICI 100 nM, 48 h
Experimental: The product was then filtered through a nylon mesh (Lockertex Ltd, Merseyside, UK) and the filtrate centrifuged at 2000 rpm, at room temperature (RT). The pellet was re-suspended in 9 mls of RPMI/1% FCS and a cell count performed to estimate the number of tumour cells in the preparation. […] A count of viable tumour cells was performed using trypan blue (Sigma, Poole, UK) prior to seeding in breast complete medium (DMEM/F-12 containing, 15 mM Hepes, 2 mM L-glutamine, 100U/ml penicillin, O. 1 mg/ml streptomycin, 50 U/ml polymixin B, 2.5 μg/ml amphotericin B, 5 μg/ml insulin, 10 μg/ml apo-transferrin, 100 μM ethanolamine, 1 μg/ml hydrocortisone, 10 ng/ml EGF) plus 5% FCS) for culture. The cells were used for experiments on day 3 after the initial plating.
(§1) For infections of primary cells, 6-10,000 cells/well were allowed and exposed to the given quantity of virus, after which they were pelleted and re-supended in 200 ul of PR free/5% DSS medium containing the appropriate ligands prior to plating into 96-well plates.
Cells were incubated for 48 hours following infections unless stated otherwise.
(§2) Reporter Gene Assay 48 hours after virus infection, 20 ul of 20% Triton in PBS was added to each well and incubated at RT for 10 minutes. […] (CRPG) made up in TBS at a concentration of 8 mg/ml was then added to the wells and the plate was incubated, foil-wrapped, at 37° C. until a colour change was observed. Plate readings were taken at a wavelength of 547 nm.
We have used the adeno-reporter to infect purified cells from breast cancer and lymph nodes of 19 patients. The reporter assay was performed in a blinded fashion since the IHC report of ER status was not available until after the experiments were complete. Viral infections were performed in suspension so as not to loose cancer cells since they were only loosely adherent. Following exposure to the virus for an hour, the cells were washed to remove excess virus and then plated and incubated in PR free/5% DSS supplemented with the given ligands for 48 hours.

estrogen receptor (ER) [2] = assay: adenoERreporter assay in breast cancer cells from metastatic effusions (pleural, ascites); format: cell-based, human
Source text: In the case of metastatic fluid, 100 mls of the fluid was sent for cytological examination and staining for ER and PR. The remaining fluid was centrifuged and the cell pellets were pooled. This was re-suspended in RPMI-1640/1% FCS and tumour cell numbers estimated as before. If the cells were in clusters, trypsin/EDTA (Sigma, Poole, UK) was used to obtain single cell suspensions before filtering to remove any debris. The remaining steps were as above. The purified cells were either infected immediately or cultured for a few days prior to infection.
as §1, §2
(§3) We purified breast cancer cells from metastatic fluid, both pleural and ascites as well as fine needle aspirates (FNA) from recurrent breast cancer. These cells were counted and infected with adenoERreporter and after 48 hours a β-gal assay was performed. We have infected 9 metastatic effusions including 2 cell lines of passage number two, derived from pleural effusions and 4 FNAs. Tables 3 and 4 show the treatment history and characteristics of the patients that provided the samples. Where possible, some of the fluid was sent for cytology and ER staining.

estrogen receptor (ER) [3] = assay: adenoERreporter assay in fine needle aspirates (FNA) from recurrent breast cancer; format: cell-based, human
Experimental: Cells obtained from FNAs were collected in PBS (Sigma, Poole, UK) containing 2% FCS. If the aspirate was bloody, erythrocyte lysis buffer (0.155M NH4Cl, 10 mM KHCO3, 0.1 mM EDTA, pH 7.4) was used to lyse the red blood cells and after a further wash with PBS, the cells were re-suspended in culture media for counting and immediate infections.
as §1, §2
as §3, with “staining. However, this was not always feasible due to the variability of cancer cells in the metastatic fluid.” for “staining.”

estrogen receptor (ER) [4] = assay: viral ER reporter in ER negative breast cancer cell lines; format: cell-based, human; details: virus 100:1
Experimental: FIG. 3: Reporter activity in variety of estrogen receptor alpha positive (MCF-7, T47-D, ZR75-1, BT474) and negative (Cal-51, SkBr3, and MDA-MB231 cell lines). For each figure, the order is as follows: (1) refers to the no ligand control.
For adenovirus infections, cell lines were plated in 96 wells at the given density in phenol red free DMEM supplemented with 5% double-stripped serum (PR/5% DSS). The following day cells were exposed to the given quantity of plaque forming units per cell (multiplicity of infection, MOI) in PR/SF medium. This was incubated at 37° C. for 1 hour after which the media was replaced by PR free/5% DSS containing the ligands.
as §2
We went on to test the virus reporter in a variety of ER positive and ER negative cell lines. Again 0.5×10^5 cells were infected with 100 virus per cell (100:1). Using the GFP virus it was evident that the infectability of the cell lines was variable. […]

[5] = tested on: malignant mammary epithelial cells; assay: effects of estradiol and tamoxifen on survival of purified malignant mammary epithelial cells (Trypan blue counts); format: cell-based, human; details: for effect on cell death: ER positive purified breast cancer cells, E2 10 nM, OHT 100 nM
Experimental: (§4) 1×10^5 cells were plated into the wells of 96 well plates. […] Total and viable (Trypan blue) cell counts were measured during the time course of the experiment.
(§5) Normal cells were studied at several time points whereas due to limited number of cells, studies were limited to 2 time points in tumors. Trypan Blue staining determined viable cell numbers.

[6] = tested on: normal mammary epithelial cells; assay: effects of estrogen and tamoxifen on purified normal mammary epithelial cells; format: cell-based, human; details: purified normal breast cells
Experimental: Cell viability was assessed using exclusion of Trypan blue staining. Proliferation of cells in culture was assessed by measuring tritiated thymidine (3HTdR) incorporation into DNA and using the MTS assay. For ^3HTdR-labelling, purified cells were seeded into the wells of 24-well dishes. The medium was subsequently changed for 0.5 ml of ^3HTdR-supplemented thymidine-free medium (RPMI, 2 mM L-glutamine, 100U/ml penicillin, 0.1 mg/ml streptomycin plus dialysed 2% FCS). The amount of incorporated ^3HTdR in the cultures was measured by scintillation counting following precipitation with trichloroacetic acid. MTS assays were carried out using the Cell Titre 96 (Promega, UK), according to manufacturer's protocols.
as §4, §5

ER positive tumours = details: cited from earlier work
[7] = Table 2 patient 5 Ln, ER+/PR−, Pre
[8] = Table 2 patient 8, ER+++/PR−, Post
[9] = Table 2 patient 12 Tu, Anaplastic small cell carcinoma, ER−/PR−
[10] = Table 2 patient 13, ER−/PR−, Post

Compound	Reporter response (estrogen receptor (ER) [1]; [7])	Reporter response (estrogen receptor (ER) [1]; [8])	Reporter response (estrogen receptor (ER) [1]; Table 2 patient 12 Ln)	Reporter response (estrogen receptor (ER) [1]; [9])	Reporter response (estrogen receptor (ER) [1]; [10])	Reporter response (estrogen receptor (ER) [1]; Table 2 patient 15 Ln)	Reporter response (estrogen receptor (ER) [1]; Table 2 patient 15 Tu, ER−/PR−)	Reporter response (estrogen receptor (ER) [1]; Table 2 patient 16 Ln)	Reporter response (estrogen receptor (ER) [1]; Table 2 patient 16 Tu, Post)	Reporter response (estrogen receptor (ER) [1]; Table 2 patient 17)	Reporter response (estrogen receptor (ER) [1]; Table 2 patient 18, ER−/PR−)	effect on cell death [5]	further results
4-hydroxytamoxifen [4-OHT]	ns	ns	ns	ns	ns	ns	ns	ns	ns	ns	ns	–	effect on ER activity (estrogen receptor (ER) [2]; patient 4 (table 3), ascites, no previous treatment): inhibitory; Reporter Assay: inhibition (estrogen receptor (ER) [3]; FNA summary table, N = 1, IHC ER−/PR−, ?Responder): OHT/ICI inhibit by × 1.8
C[C@]12CC[C@@H]3c4ccc(O)cc4CC[C@H]3[C@@H]1CC[C@@H]2O [E2, 17β-estradiol]	ns	ns	ns	ns	ns	ns	ns	ns	ns	ns	ns	reduction in cell death	effect on ERE driven β-gal reporter / baseline activity (estrogen receptor (ER) [4]): no appreciable effect; stimulatory effect on the reporter above the background activity (estrogen receptor (ER) [2]; ER positive relapsed patients, compared with primary breast tumour): less of a stimulatory effect; Reporter Activity (estrogen receptor (ER) [2]; Table 3 patient 1) T2G2NxM0, PE, primary ER++/PR−, prior Tamoxifen 3y, Lentaron 5m): Ns; Reporter Activity (estrogen receptor (ER) [3]; Table 4 patient 1) T3G2N1M0, FNA ER−/PR−, no prior endocrine treatment): Ns; effect of estrogen on cells ([5]; ER negative breast cancer cells): no effect; expression of estrogen-regulated genes after estrogen exposure [6]: expressing both PR and PS2
CC/C(=C(\c1ccccc1)c1ccc(OCCN(C)C)cc1)c1ccccc1 [tamoxifen]	–	–	–	–	–	–	–	–	–	–	–	reversed	effect on reporter activity across patient samples (estrogen receptor (ER) [1]; purified cells from breast cancer and lymph nodes of 19 patients): inhibitory in most cases but did show some agonistic activity in a proportion of patients; increase in reporter activity in the presence of tamoxifen (estrogen receptor (ER) [2]; patient 1 (Table 3)): approximately 10 fold; response of cells to tamoxifen (estrogen receptor (ER) [2]; patient 3, table 3, previous tamoxifen for one year): continued to respond to tamoxifen; effect on reporter compared with E2 (estrogen receptor (ER) [2]; patient samples 1, 5 and 6 (Table 3) and patient 6 (Table 4), relapsed after tamoxifen): an effect at least equivalent to E2; cell numbers after tamoxifen treatment compared to estradiol treatment ([5]; 7 tumors studied, responders all ER positive, viable counts by Trypan Blue): Four out of the 7 tumors studied showed significant reduction in cell numbers; effect on proliferation [6]: decrease; patients with ERα-positive disease that do not respond (ER positive tumours; breast cancer patients, adjuvant/metastatic treatment): approximately 30%; patients with ER positive tumours that fail to respond (ER positive tumours; primary endocrine therapy (Gazet et al 1987)): ~50%
